Measurements: patent US20220015355A1, “NOVEL CARRIER FLUIDS FOR LIQUID FUNGAL SPORE FORMULATIONS” (priority 2018, published 2022)
Where two headings read alike, the source gives them in different places. Marks after values point to notes of the source that are not given here.

Tests used:
[1] = test system: P. lilacinum strain 251 spores; assay: spore viability (germination rate on agar) of P. lilacinum spores in carrier fluid after storage at 30° C.; format: cell-based, Purpureocillium lilacinum; conditions: for decline in spore viability at day 1 and after storage: fluids not within the scope of the invention
Experimental: (§1) 3 g of P. lilacinum strain 251 pure spore powder were transferred into a formulation vessel (IKA Type DT-20 mixing vessel with dispersion tool for Ultra Turrax) using a sterile spoon. 12 mL of fluid were added into the respective formulation vessel and dispersed using ultra turrax tube drive control for 1 min at 3000 rpm; change direction after 30 sec. After this 2.8 mL were transferred in four sample bottles (Wheaton Serum vial, Type I) leaving little headspace and closed tight using crimpneck caps (Macherey—Nagel type N 13) Afterwards all sample bottles were transferred to an incubator set at 30° C. and stored for a given time.
(§2) In regular intervals a sample was retrieved from the storage location and analyzed for spore viability. Therefore the original samples were thoroughly homogenized. Aliquots of 0.25 g or […] of each sample are transferred into 50 mL falcon tubes. The tubes were filled up to 25 g using a sterile aqueous solution containing 2% Tween 80 and homogenized by vortexing to achieve the first dilution step (1:100 dilution). This dilution is used for further dilution and spotting on agar.
(§3) For evaluation of spore germination rate prepare a 1:30000 dilution based on the 1:100 dilution achieved by multiple automated dilution (pipetting robot, 96 well plate). Afterwards 12×12 cm agar plates are taken and spotted with 10 times […] of each sample using an automated 12-Channel pipet. Wait until liquid is soaked up by agar and transfer agar plate to an incubator and incubate at 25° C. for 17 hours. Open the plate and place it under the microscope. Randomly choose one area per spot and record the number of germinated and non-germinated spores that are within the designated field. At least 200 spores per sample need to be evaluated. If needed count more than one field per spot.

[2] = test system: Isaria fumosorosea spores; assay: spore viability of Isaria fumosorosea spores in carrier fluid after storage, Method 2 (flow cytometry); format: cell-based
Experimental: Method 2: 0.5 g of Isaria fumosoresea pure spore powder were transferred into an Erlenmeyer flask using a sterile spoon. 24.5 mL of fluid were dispersed using Ultra-Turrax (IKA; Type T 25 D) for 1 min at 3,000 rpm. After this, 2.0 mL were transferred in 20 sample bottles (Wheaton Serum vial, Type I) leaving little headspace and closed tight using crimpneck caps (Macherey—Nagel type N 13). Afterwards all sample bottles were transferred to an incubator set at 30° C. and stored for a given time.
In regular intervals a sample was retrieved from the storage location and analyzed for spore viability. For this purpose, the original samples were thoroughly homogenized. Aliquots of 0.5 g of each sample were transferred into 100 mL-Erlenmeyer flask. The flasks were filled up to 50 g using a sterile aqueous solution containing 0.1% Break Thru® 5240 (Evonik, Industries) and homogenized on a magnetic stirrer (Thermo Fisher Scientific: Cimarec™) at least for 15 min with 750 rpm to achieve the first dilution step (1:100 dilution). This dilution was used for further dilution.
Not all samples mixed well or mixed at all in 0.1% Break Thru 5240. For these samples, 500 μL Neo-wett (Kwizda Agro GmbH) and/or a small amount (knife tip) Metaupon®-OMT (LEUNA Tenside GmbH) were also added to the aqueous solution.
After homogenization 1 mL were transferred into a 1.5 mL tube and were centrifuged for 15 min at 14,000 rpm (Thermo Fisher Scientific, Type Megafuge 8R). The supernatant (=upper phase) was discarded by using a pipette. The tubes were filled up to 1 mL using a sterile aqueous solution containing 0.1% Neo-wett and homogenized by vortexing.
To assess fungal viability, a method based on flow cytometry was used.

[3] = test system: Penicillium bilaii (ATCC 20851) spores; assay: spore viability (germination rate on agar) of Penicillium bilaii spores in carrier fluid after storage at 30° C.; format: cell-based
Experimental: as §1, with “1.5 g” for “3 g”, “of Penicillium bilaii (ATCC 20851)” for “of P. lilacinum strain 251”, “spoon. 13.5” for “spoon. 12”
as §2
as §3, with “1:15000” for “1:30000”, “20°” for “25°”

[4] = test system: Beauveria Bassiana spores; assay: spore viability (germination rate on agar) of Beauveria bassiana spores in carrier fluid after storage at 30° C.; format: cell-based
Experimental: as §1, with “1.5 g” for “3 g”, “of Beauveria Bassiana” for “of P. lilacinum strain 251”, “spoon. 13.5” for “spoon. 12”
as §2
as §3, with “1:15000” for “1:30000”, “20°” for “25°”

[5] = Purpureocillium lilacinum, 35 d
[6] = P. lilacinum strain 251 in the liquid, day 1

CCCCOCCOCCOCCO [Triethylenglycol monobutylether, Triethylenglycol-monobutylether]
spore viability [%] after 1 m (27-28 d) ([1]; Purpureocillium lilacinum): 57.5%
spore viability [%] after 3 m (87-92 d) ([1]; Purpureocillium lilacinum): 50.8%
spore viability [%] at day 1 ([1]; Purpureocillium lilacinum, 1 d): 77.5%

COCCOCCOCCOCCOC [Tetraglyme, Tetraethylenglycol diether]
spore viability [%] after 1 m (27-28 d) [1]: 94.8%
spore viability [%] after 2 m (51-55 d) [1]: 93.2%
spore viability [%] after 2 w (12-15 d) [1]: 97.6%
spore viability [%] after 7 m (210 d) [1]: 83.5%
spore viability [%] at day 1 [1]: 97.2%
spore viability after storage for 7 months at 30° C. (in words) ([1]; text summary of Table I): exceptional spore viability

CCOCCOCCO [Carbitol, Diethylenglycolmonoethyl ether, reference compound]
spore viability [%] after 1 m (27 d) [2]: 12.0%
spore viability [%] after 2 w (~14 d) [2]: 13.7%
spore viability [%] at day 1 [2]: 78.0%

CCCCCCOCCO [Hexylcellosolve, Ethylenglycolmonohexylester, reference compound]
spore viability [%] after 3 m (87-92 d) [1]: 6.0%
spore viability [%] after 5 w (35 d) [1]: 27.4%
spore viability [%] at day 1 [1]: 79.5%
decline in spore viability at day 1 and after storage ([1]; text summary of Table I): steep decline in spore viability

Tween 80
spore viability [%] after 1 m (27 d) [2]: 72.0%
spore viability [%] after 2 w (~14 d) [2]: 76.4%
spore viability [%] at day 1 [2]: 96.2%

COCC(C)OCC(C)OC (centres unmarked) [Proglyde DMM, Dipropylene glycol dimethyl ether]
spore viability [%] 3 m@30° C. (83-85 d) ([3]; Penicillium bilaii): 10.5%
spore viability [%] 6 w@30° C. (41-43 d) ([3]; Penicillium bilaii): 29.6%
spore viability [%] initial (1-2 d) ([3]; Penicillium bilaii): 54.6%
spore viability [%] at day 1 ([4]; Beauveria bassiana, 1 d): 88.4%
spore viability [%] after 2 w (14 d) ([4]; Beauveria bassiana): 48.0%
spore viability [%] after 5 w (35 d) ([4]; Beauveria bassiana): 21.8%
spore viability [%] after 3 m (87-92 d) ([1]; Purpureocillium lilacinum): 75.4%
spore viability [%] at day 1 ([1]; Purpureocillium lilacinum, 1 d): 98.8%
spore viability [%] after 5 w (35 d) [1, 5]: 96.0%

CC(=O)OCC(C)OC(C)=O (centres unmarked) [Dowanol PGDA, Propylenglycol Diacetat]
spore viability [%] 3 m@30° C. (83-85 d) ([3]; Penicillium bilaii): 36.4%
spore viability [%] 6 w@30° C. (41-43 d) ([3]; Penicillium bilaii): 69.3%
spore viability [%] initial (1-2 d) ([3]; Penicillium bilaii): 93.6%
spore viability [%] at day 1 ([4]; Beauveria bassiana, 1 d): 90.6%
spore viability [%] after 3 w (21 d) ([4]; Beauveria bassiana, 21 d): 51.6%
spore viability [%] after 3 m (87-92 d) ([1]; Purpureocillium lilacinum): 88.4%
spore viability after storage for 2 or 3 months, respectively ([1]; Purpureocillium lilacinum): ≥ 80%
spore viability [%] at day 1 ([1]; Purpureocillium lilacinum, 1 d): 98.8%
spore viability [%] after 5 w (35 d) [1, 5]: 98.2%
spore viability [%] at day 1 ([2]; Isaria fumosorosea, 1 d): 97.0%
spore viability [%] after 1 m (27 d) ([2]; Isaria fumosorosea, 27 d): 53.0%

CCCCOCCO [Butylcellosolve, Ethylenglycolmonobutylether, reference compound]
decline in spore viability at day 1 and after storage ([1]; text summary of Table I): steep decline in spore viability

2-(2-Ethoxyethoxy)ethyl acetate; Diethylene glycol monoethyl ether acetate [n-Butyldiglycolacetat]
spore viability [%] at day 1 [1, 6]: 93.2%
spore viability [%] after 3 m (87-92 d) ([1]; storage at 30° C., 87-92 d): 82.7%
spore viability [%] after 5 w (35 d) ([1]; storage at 30° C., 35 d): 89.3%

Polyethylenglycol- 300 [Pluriol E300]
spore viability [%] after 1 m (27 d) [2]: 87.0%
spore viability [%] after 3 months [2]: 45.0* %
spore viability [%] at day 1 [2]: 96.0%

CCCOCCO [Propylcellosolve, Ethylenglycolmonopropylether, reference compound]
spore viability [%] after 3 m (87-92 d) [1]: 0.6%
spore viability [%] after 5 w (35 d) [1]: 8.1%
spore viability [%] at day 1 [1]: 76.2%
decline in spore viability at day 1 and after storage ([1]; text summary of Table I): steep decline in spore viability

Polyethyleneglycol-400 monolaurate [Radiasurf 7423]
spore viability [%] after 1 m (27-28 d) [1]: 93.8%
spore viability [%] after 2 m (51-55 d) [1]: 79.7%
spore viability [%] after 2 w (12-15 d) [1]: 91.4%
spore viability [%] after 7 m (210 d) [1]: 36.9%
spore viability [%] at day 1 [1]: 90.8%
spore viability after storage for 2 or 3 months, respectively [1]: ≥ 80%
spore viability [%] after 1 m (27 d) [2]: 42.3%
spore viability [%] after 2 w (~14 d) [2]: 58.0%
spore viability [%] at day 1 [2]: 86.7%

COCCOCCOCCO [Methoxytriglycol, Triethylenglycol monomethyl ether, reference compound]
spore viability [%] 3 m@30° C. (83-85 d) ([3]; Penicillium bilaii): 30.3%
spore viability [%] 6 w@30° C. (41-43 d) ([3]; Penicillium bilaii): 43.1%
spore viability [%] initial (1-2 d) ([3]; Penicillium bilaii): 74.3%
spore viability [%] at day 1 ([4]; Beauveria bassiana, 1 d): 79.7%
spore viability [%] after 2 w (14 d) ([4]; Beauveria bassiana): 12.3%
spore viability [%] after 5 w (35 d) ([4]; Beauveria bassiana): 1.5%
decline in spore viability after storage under given conditions ([4]; Table III, fluids not within the scope of the invention): steep decline in spore viability
spore viability [%] after 3 m (87-92 d) ([1]; Purpureocillium lilacinum): 19.9%
spore viability [%] at day 1 ([1]; Purpureocillium lilacinum, 1 d): 83.3%
spore viability [%] after 5 w (35 d) [1, 5]: 55.3%
decline in spore viability at day 1 and after storage ([1]; text summary of Table I): steep decline in spore viability

COC(C)COC(C)CO (centres unmarked) [Dowanol DPM, Dipropylene Glycol monomethyl ether]
spore viability [%] at day 1 ([4]; Beauveria bassiana, day 1): 83.9%
spore viability [%] after 2 w (14 d) ([4]; storage at 30° C.): 61.0%
spore viability [%] after 5 w (35 d) ([4]; storage at 30° C.): 36.6%
spore viability [%] at day 1 [1, 6]: 91.0%
spore viability [%] after 2 w (12-15 d) ([1]; storage at 30° C., 12-15 d): 95.3%
spore viability [%] after 1 m (27-28 d) ([1]; storage at 30° C., 27-28 d): 93.3%
spore viability [%] after 2 m (51-55 d) ([1]; storage at 30° C., 51-55 d): 74.7%

Polyethylene glycol Monooleate [Alkamuls A]
spore viability [%] after 1 m (27 d) [2]: 90.7%
spore viability [%] after 2 w (~14 d) [2]: 93.0%
spore viability [%] at day 1 [2]: 94.4%

Tween 85
spore viability [%] after 2 months [3]: 92.0$ %
spore viability [%] initial (1-2 d) [3]: 99.0%
spore viability [%] after 1 m (27 d) [2]: 98.0%
spore viability [%] after 6 months [2]: 96.1*** %
spore viability [%] at day 1 [2]: 98.9%
spore viability after storage for 7 m at 30° C. [2]: ≥ 50%
